Reference: PMC10536189 (Microorganisms, 2023)
Read-outs that look alike come from different tables or passages of the source. Where no end group is shown, it is not given here.

Assays:
M. tuberculosis = assay type: cell-based, Mycobacterium tuberculosis (laboratory strain H37Rv); settings: for Average % Faster than Control: negative = slower; for Time to Positivity (Days.Hours) Experiment 2a / Time to Positivity (Days.Hours) Experiment 2b: diluted inoculum; for Time to Positivity (Days.Hours) Experiment 2a: technical repeat 2a, TB control (no peptide) 15.01; for Time to Positivity (Days.Hours) Experiment 2b: technical repeat 2b, TB control (no peptide) 15.20; for Time to Positivity (Days.Hours) Experiment 1a / Time to Positivity (Days.Hours) Experiment 1b: less diluted inoculum; for Time to Positivity (Days.Hours) Experiment 1a: technical repeat 1a, TB control (no peptide) 7.02; for Time to Positivity (Days.Hours) Experiment 1b: technical repeat 1b, TB control (no peptide) 7.01
[1] = test system: Mycobacterium avium subsp. paratuberculosis (MAP); assay type: cell-based; settings: for Effect on growth of MAP compared to control: peptide 20 µg/mL, 37 °C
[2] = test system: Mycobacterium tuberculosis (MTB); assay type: cell-based, Mycobacterium tuberculosis (laboratory strain H37Rv)
[3] = crude peptide 10 µg/mL, MGIT, independent experiment 1, Control (TB only) 11.10, inoculum emulsified through G25 needle
[4] = crude peptide 10 µg/mL, MGIT, independent experiment 2, Control (TB only) 9.10, inoculum emulsified through G25 needle
[5] = crude peptide 10 µg/mL, average of experiments 1 and 2
[6] = peptide 10 µg/mL, overall average of the averages of experiments 1a/1b and 2a/2b

| Substance | Average % Faster than Control (M. tuberculosis; [5]) | Time to Positivity (Day.Hours) Experiment 1 (M. tuberculosis) | Time to Positivity (Day.Hours) Experiment 2 (M. tuberculosis) | also measured |
| --- | --- | --- | --- | --- |
| HFLGTLVNLAKKIL [Temporin-1DRa/Frog, naturally occurring peptide, APD3, frog] | 8.5% | – | – | Time to Positivity (Day.Hours) Experiment 1 (M. tuberculosis; [3]): 10.18 Day.Hours; Time to Positivity (Day.Hours) Experiment 2 (M. tuberculosis; [4]): 8.09 Day.Hours |
| ILGAILPLVSGLLSNKL [Alyteserin-2b/Toad] | 5.6% | 11.18 Day.Hours | 8.02 Day.Hours | – |
| ILPFLAGLFSKIL [Pelophylaxin-4/Frog] | 4.5% | 11.05 Day.Hours | 8.18 Day.Hours | – |
| ILPWKWPWWPWRR [Indolicidin/Cow] | 4.8% | 11.03 Day.Hours | 8.18 Day.Hours | – |
| INLKAIAALVKKLL [Mastoparan-VT6/Wasp] | 9.0% | 10.21 Day.Hours | 8.04 Day.Hours | – |
| IRLHRLYTWKATIYTR [PP13/Wasp *] | 10.2% | 10.17 Day.Hours | 8.02 Day.Hours | – |
| IsCT2/Scorpion: naturally occurring peptide, APD3, scorpion (IFGAIWNGIKSLF) | 4.9% | 10.23 Day.Hours | 8.21 Day.Hours | – |
| KKLLGKLLKKLGKLLL [GLK-19/Designed *] | 9.7% | 10.17 Day.Hours | 8.04 Day.Hours | – |
| KRRWRIWLV [P9/Designed] | 4.4% | 11.10 Day.Hours | 8.14 Day.Hours | – |
| LFKLLGKIIHHVGNFV [Clavanin E/Sea squirt, naturally occurring peptide, APD3, sea squirt] | 5.8% | – | – | Time to Positivity (Day.Hours) Experiment 1 (M. tuberculosis; [3]): 11.05 Day.Hours; Time to Positivity (Day.Hours) Experiment 2 (M. tuberculosis; [4]): 8.12 Day.Hours |
| LLAGLPKLLCLFFKKC [Brevinin-1DYc/Frog] | 4.0% | 11.10 Day.Hours | 8.16 Day.Hours | – |
| LLGDFFRKSKEKIGKEFKRIVQRIKDFLRNLVPRTES [Peptide 78, reference compound] | – | – | – | Effect on TTP of MTB in words (M. tuberculosis; peptide 10 µg/mL, MGIT): lower TTP; Time to Positivity (Days.Hours) Experiment 2a (M. tuberculosis; peptide 10 µg/mL, MGIT): 14.15 Days.Hours; Time to Positivity (Days.Hours) Experiment 2b (M. tuberculosis; peptide 10 µg/mL, MGIT): 15.00 Days.Hours; Time to Positivity (Days.Hours) Experiment 1a (M. tuberculosis; peptide 10 µg/mL, MGIT): 6.08 Days.Hours; Time to Positivity (Days.Hours) Experiment 1b (M. tuberculosis; peptide 10 µg/mL, MGIT): 6.09 Days.Hours; Average % Faster than Control (M. tuberculosis; [6]): 5.8% |
| LSFLPKVIGVIGHLIH [Fallaxidin/Frog *] | 3.2% | 11.18 Day.Hours | 8.13 Day.Hours | – |
| LVPLFLSKLICFITKKC [Brevinin 1Tb/Frog] | 4.2% | 11.10 Day.Hours | 8.15 Day.Hours | – |
| OdVP2/Wasp: naturally occurring peptide, APD3, wasp (ILGIITSLLKSLGKK) | 7.3% | 10.22 Day.Hours | 8.11 Day.Hours | – |
| Pd_mastoparan PDD-B/Wasp: naturally occurring peptide, APD3, wasp (INWLKLGKKILGAL) | 6.3% | 11.06 Day.Hours | 8.09 Day.Hours | – |

| Substance | Average % Faster than Control (M. tuberculosis; [5]) | Time to Positivity (Day.Hours) Experiment 1 (M. tuberculosis) | Time to Positivity (Day.Hours) Experiment 2 (M. tuberculosis) | also measured |
| --- | --- | --- | --- | --- |
| RGGRLCYCRRRFCVCV [Protegrin 1/Pig *] | 15.3% | 10.23 Day.Hours | 6.22 Day.Hours | – |
| RLARIVVIRVRR-CONH2 (RLARIVVIRVRR-NH2) [Peptide 70] | – | – | – | Effect on growth of MAP compared to control [1]: no discernible effect on the growth; Time to Positivity (Days.Hours) Experiment 2a (M. tuberculosis; peptide 10 µg/mL, MGIT): 14.22 Days.Hours; Time to Positivity (Days.Hours) Experiment 2b (M. tuberculosis; peptide 10 µg/mL, MGIT): 15.06 Days.Hours; Time to Positivity (Days.Hours) Experiment 1a (M. tuberculosis; peptide 10 µg/mL, MGIT): 6.03 Days.Hours; Time to Positivity (Days.Hours) Experiment 1b (M. tuberculosis; peptide 10 µg/mL, MGIT): 6.19 Days.Hours; Average % Faster than Control (M. tuberculosis; [6]): 4.2% |
| RLARIVVIRWAR-CONH2 (RLARIVVIRWAR-NH2) [Peptide 72] | – | – | – | Effect on growth of MAP compared to control [1]: significant reduction in the growth; Time to Positivity (Days.Hours) Experiment 2a (M. tuberculosis; peptide 10 µg/mL, MGIT): 15.01 Days.Hours; Time to Positivity (Days.Hours) Experiment 2b (M. tuberculosis; peptide 10 µg/mL, MGIT): 15.13 Days.Hours; Time to Positivity (Days.Hours) Experiment 1a (M. tuberculosis; peptide 10 µg/mL, MGIT): 6.22 Days.Hours; Time to Positivity (Days.Hours) Experiment 1b (M. tuberculosis; peptide 10 µg/mL, MGIT): 7.01 Days.Hours; Average % Faster than Control (M. tuberculosis; [6]): −0.2% |
| RRWRIVVIRVRR-CONH2 (RRWRIVVIRVRR-NH2) [Peptide 69] | – | – | – | Effect on growth of MTB compared to control [2]: slight improvements; Effect on TTP of MTB in words (M. tuberculosis; peptide 10 µg/mL, MGIT): strong hormetic response; Time to Positivity (Days.Hours) Experiment 2a (M. tuberculosis; peptide 10 µg/mL, MGIT): 13.12 Days.Hours; Time to Positivity (Days.Hours) Experiment 2b (M. tuberculosis; peptide 10 µg/mL, MGIT): 13.02 Days.Hours; Time to Positivity (Days.Hours) Experiment 1a (M. tuberculosis; peptide 10 µg/mL, MGIT): 6.02 Days.Hours; Time to Positivity (Days.Hours) Experiment 1b (M. tuberculosis; peptide 10 µg/mL, MGIT): 6.02 Days.Hours; Average % Faster than Control (M. tuberculosis; [6]): 12.8% |
| RWCFRVCYRGICYRKCR [Tachyplasin II/Crab] | 9.1% | 10.18 Day.Hours | 8.06 Day.Hours | – |
| RWCVYAYVRVRGVLVR [Arenicin 1/Annelid worm *] | 10.5% | 10.15 Day.Hours | 8.02 Day.Hours | – |
| SAPRGCWTKSYPPKPCK [Ranacyclin E/Frog] | 12.2% | 10.07 Day.Hours | 8.01 Day.Hours | – |
| SLLSLIRKLIT [Decoralin/Wasp] | 6.3% | 11.12 Day.Hours | 8.04 Day.Hours | – |
| VFHLLGKIIHHVGNFV [Clavanin C/Sea squirt, naturally occurring peptide, APD3, sea squirt] | 7.2% | – | – | Time to Positivity (Day.Hours) Experiment 1 (M. tuberculosis; [3]): 10.21 Day.Hours; Time to Positivity (Day.Hours) Experiment 2 (M. tuberculosis; [4]): 8.12 Day.Hours |
| VNWKKILGKIIKVVK [Lasioglossin LL-III/Bee] | 13.1% | 9.18 Day.Hours | 8.08 Day.Hours | – |
| VRRFPWWWPFLRR [Tritrpticin/Pig] | −0.3% | 11.08 Day.Hours | 9.13 Day.Hours | – |
| WCFRVCYKGFCYRKCR [Polyphemusin/Crab *] | 5.6% | 11.05 Day.Hours | 8.13 Day.Hours | – |
| WGKLFKLGLHGIGLLH [NRC-15/Fish *] | 8.3% | 10.21 Day.Hours | 8.07 Day.Hours | – |
| YAYVRIRGVLVRYRRC [Arenicin-2/Lugworm] | 6.3% | 11.13 Day.Hours | 8.03 Day.Hours | – |
| YQEPVLGPVRGPFPIIV [Casecidin 17/Cow] | 4.1% | 11.12 Day.Hours | 8.14 Day.Hours | – |
| rrwrivvirvrr-CONH2 [Peptide 69D] | – | – | – | Effect on growth of MAP (growth-enhancing activity) of protease-stabilised peptides ([1]; peptide 10 µg/mL, absorbance at 600 nm): growth-enhancing activity remained; Concentration at which growth inhibition of MTB is observed [2]: ≥ 10 µg/mL; Concentration with strong sustained growth stimulation of MTB [2]: 10 ng/mL |
